This note sets out measurements from ChEMBL document CHEMBL1201862, “PubChem BioAssay data set” (2004).

The source made the active and inactive calls.

In test [1] the target is Large T antigen (Simian virus 40, UniProt P03070). Type of test: functional, Betapolyomavirus macacae.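 Further: Confirmatory-stage PubChem screen for compounds that inhibit SV40 T antigen.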
Test [2] is described as follows: viability of HCT116 lacking mutant beta-catenin – cell-based, human colon tumor, dose response (AID 1045).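 Further: HCT116 colon tumor cells with beta catenin knocked out; cells exposed to compound for 60 hours.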 Type of test: functional.
The target of test [3] is Glyceraldehyde-3-phosphate dehydrogenase (Homo sapiens, UniProt P04406).
Sequence of Glyceraldehyde-3-phosphate dehydrogenase (P04406 whole entry): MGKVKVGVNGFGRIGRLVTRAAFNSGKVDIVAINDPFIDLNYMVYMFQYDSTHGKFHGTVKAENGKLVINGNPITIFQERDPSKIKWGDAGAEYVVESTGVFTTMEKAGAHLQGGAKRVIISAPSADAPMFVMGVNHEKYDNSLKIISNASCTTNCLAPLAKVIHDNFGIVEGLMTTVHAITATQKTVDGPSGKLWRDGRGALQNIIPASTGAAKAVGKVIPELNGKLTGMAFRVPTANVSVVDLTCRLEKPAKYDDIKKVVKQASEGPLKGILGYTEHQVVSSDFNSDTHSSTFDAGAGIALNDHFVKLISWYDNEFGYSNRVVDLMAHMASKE
Test [4] deals with T1, Leucine aminopeptidase (Plasmodium falciparum 3D7, UniProt Q8IL11).
T1 sequence (Q8IL11 whole entry): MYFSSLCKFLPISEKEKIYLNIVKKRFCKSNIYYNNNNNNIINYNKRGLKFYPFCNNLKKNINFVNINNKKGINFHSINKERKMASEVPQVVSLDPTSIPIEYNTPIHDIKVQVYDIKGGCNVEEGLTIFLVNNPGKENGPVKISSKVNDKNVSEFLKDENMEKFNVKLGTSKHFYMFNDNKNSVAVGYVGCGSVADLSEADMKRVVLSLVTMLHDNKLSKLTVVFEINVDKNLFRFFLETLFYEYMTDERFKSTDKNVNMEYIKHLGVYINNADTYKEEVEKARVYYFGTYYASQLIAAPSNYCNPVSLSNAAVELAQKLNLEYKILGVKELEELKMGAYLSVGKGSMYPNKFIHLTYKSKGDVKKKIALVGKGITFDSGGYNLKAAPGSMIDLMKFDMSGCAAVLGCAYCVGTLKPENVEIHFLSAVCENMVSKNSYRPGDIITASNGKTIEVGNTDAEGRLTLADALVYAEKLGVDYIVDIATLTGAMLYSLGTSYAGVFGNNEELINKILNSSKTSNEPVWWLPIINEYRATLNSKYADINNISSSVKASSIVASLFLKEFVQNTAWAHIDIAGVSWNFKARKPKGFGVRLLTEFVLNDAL
Nature of the test: P. falciparum M17LAP inhibitors, primary screen, biochemical, fluorogenic H-Leu-NHMec substrate, 1536-well (AID 1619). The class given is functional.

For test [5], the target named is T2, Polyadenylate-binding protein 1 (Homo sapiens, UniProt P11940). Nature of the test: MLLE binding blockers, Cy5 peptide tracer – biochemical, fluorescence polarization, Cy5-PAM2 peptide, secondary, miRNA deadenylation inhibitor project, dose response (AID 602260). The class given is functional. To be noted: read-out: IC50_Mean.
T2 sequence (P11940 whole entry): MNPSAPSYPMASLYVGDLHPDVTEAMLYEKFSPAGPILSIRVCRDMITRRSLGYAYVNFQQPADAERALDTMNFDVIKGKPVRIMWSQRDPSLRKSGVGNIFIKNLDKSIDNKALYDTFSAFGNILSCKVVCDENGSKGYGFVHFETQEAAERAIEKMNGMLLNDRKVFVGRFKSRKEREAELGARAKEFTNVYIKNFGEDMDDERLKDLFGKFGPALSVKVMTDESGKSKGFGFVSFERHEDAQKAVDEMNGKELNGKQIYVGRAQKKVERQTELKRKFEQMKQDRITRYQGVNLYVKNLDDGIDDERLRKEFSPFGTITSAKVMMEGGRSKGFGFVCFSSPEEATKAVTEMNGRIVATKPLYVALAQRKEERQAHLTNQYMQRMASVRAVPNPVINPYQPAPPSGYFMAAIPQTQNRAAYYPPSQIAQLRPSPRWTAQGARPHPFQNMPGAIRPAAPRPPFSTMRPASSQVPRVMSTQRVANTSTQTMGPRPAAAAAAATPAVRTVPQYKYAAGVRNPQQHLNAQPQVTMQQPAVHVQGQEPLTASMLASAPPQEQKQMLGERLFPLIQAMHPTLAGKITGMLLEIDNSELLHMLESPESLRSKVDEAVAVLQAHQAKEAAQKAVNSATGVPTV
A short description of test [6]: Luminescence Cell-Based Dose Confirmation HTS to Identify Activators of 5'UTR Stem-Loop Driven Alpha-Synuclein mRNA Translation in H4 Neuroglioblastoma Cells. [Related pubchem assays: 1829 (Project Summary), 1814 (Primary HTS)]. The class given is functional.
The test system of test [7] is H4. Nature of the test: Luminescence Cell-Based Dose Response HTS to Identify Activators of 5'UTR Stem-Loop Driven Prion Protein mRNA Translation in H4 Neuroglioblastoma Cells. [Related pubchem assays: 1829 (Project Summary), 1814 (Primary HTS)]. The class given is functional. To be noted: Homo sapiens.
Test [8] in a line: Luminescence Cell-Based Dose Response HTS to Identify Activators of Luciferase Translation or Activity in H4 […] Cells. [Related pubchem assays: 1829 (Project Summary), 1814 (Primary HTS)]. Type of test: functional.
The target in test [9] is T2, Polyadenylate-binding protein 1. Nature of the test: MLLE domain peptide-binding blockers, IC50 – biochemical, fluorescence polarization, FITC-PAM2 peptide, dose response (AID 602259). The class given is functional. To be noted: read-out: IC50_Mean.
Test [10] has as its target Induced myeloid leukemia cell differentiation protein Mcl-1 (Homo sapiens, UniProt Q07820). Type of test: functional.
Test [11] deals with T3, Protein RecA (Mycobacterium tuberculosis, UniProt P9WHJ3).
T3 sequence (P9WHJ3 whole entry): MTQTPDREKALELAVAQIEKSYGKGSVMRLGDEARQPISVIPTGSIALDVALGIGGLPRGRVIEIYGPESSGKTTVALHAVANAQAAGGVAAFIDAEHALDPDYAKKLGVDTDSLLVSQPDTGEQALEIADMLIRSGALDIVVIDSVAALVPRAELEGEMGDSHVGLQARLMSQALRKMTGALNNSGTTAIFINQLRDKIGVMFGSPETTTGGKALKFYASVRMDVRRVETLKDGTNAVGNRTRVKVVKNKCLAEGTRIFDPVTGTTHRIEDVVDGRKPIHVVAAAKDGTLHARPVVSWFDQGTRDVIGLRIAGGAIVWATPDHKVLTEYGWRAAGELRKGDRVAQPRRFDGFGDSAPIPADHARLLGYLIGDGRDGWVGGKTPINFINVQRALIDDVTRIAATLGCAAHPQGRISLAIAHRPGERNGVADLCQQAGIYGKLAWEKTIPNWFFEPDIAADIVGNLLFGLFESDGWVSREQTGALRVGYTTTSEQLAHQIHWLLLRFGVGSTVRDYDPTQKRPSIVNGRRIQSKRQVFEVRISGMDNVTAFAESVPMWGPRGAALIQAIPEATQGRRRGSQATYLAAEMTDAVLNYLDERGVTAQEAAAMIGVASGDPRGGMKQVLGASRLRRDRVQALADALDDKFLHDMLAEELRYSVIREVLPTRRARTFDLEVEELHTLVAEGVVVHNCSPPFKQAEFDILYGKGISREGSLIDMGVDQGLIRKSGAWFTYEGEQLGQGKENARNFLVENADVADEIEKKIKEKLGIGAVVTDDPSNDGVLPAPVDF
Nature of the test: Fluorescence Cell-Free Homogeneous Dose Retest to Identify Inhibitors of RecA-Intein Splicing Activity. [Related pubchem assays (depositor defined):AID2097, AID2223, AID489010, AID492950]. The class given is functional.

Test [12] addresses T4, Replicative DNA helicase DnaB (Mycobacterium tuberculosis, UniProt P9WMR3).
T4 sequence (P9WMR3 whole entry): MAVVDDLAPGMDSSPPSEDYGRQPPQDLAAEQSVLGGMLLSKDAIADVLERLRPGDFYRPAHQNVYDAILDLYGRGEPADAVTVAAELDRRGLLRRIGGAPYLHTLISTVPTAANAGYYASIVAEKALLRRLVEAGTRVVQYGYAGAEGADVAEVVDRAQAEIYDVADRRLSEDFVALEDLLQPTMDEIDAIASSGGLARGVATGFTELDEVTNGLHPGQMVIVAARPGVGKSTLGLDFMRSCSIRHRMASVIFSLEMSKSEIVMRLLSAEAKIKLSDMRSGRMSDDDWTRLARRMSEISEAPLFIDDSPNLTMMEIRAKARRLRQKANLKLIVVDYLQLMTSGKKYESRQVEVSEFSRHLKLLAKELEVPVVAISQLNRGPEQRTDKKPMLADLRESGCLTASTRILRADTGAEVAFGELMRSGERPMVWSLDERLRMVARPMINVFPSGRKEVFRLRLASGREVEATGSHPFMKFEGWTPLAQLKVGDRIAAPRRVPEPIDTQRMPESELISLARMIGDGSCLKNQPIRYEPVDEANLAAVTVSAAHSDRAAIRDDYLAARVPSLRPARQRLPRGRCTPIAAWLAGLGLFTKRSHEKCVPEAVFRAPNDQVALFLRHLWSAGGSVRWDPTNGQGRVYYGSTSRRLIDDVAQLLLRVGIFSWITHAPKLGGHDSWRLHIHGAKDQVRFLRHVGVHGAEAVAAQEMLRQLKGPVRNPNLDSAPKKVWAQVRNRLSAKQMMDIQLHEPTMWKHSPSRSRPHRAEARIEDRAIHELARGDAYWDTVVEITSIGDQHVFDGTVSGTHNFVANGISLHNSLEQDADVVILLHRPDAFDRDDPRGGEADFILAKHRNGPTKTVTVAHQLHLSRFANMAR
Nature of the test: DnaB intein splicing inhibitors, dose response, biochemical, cell-free fluorescence (AID 449749). The class given is functional.

Sequence of Large T antigen (P03070 whole entry): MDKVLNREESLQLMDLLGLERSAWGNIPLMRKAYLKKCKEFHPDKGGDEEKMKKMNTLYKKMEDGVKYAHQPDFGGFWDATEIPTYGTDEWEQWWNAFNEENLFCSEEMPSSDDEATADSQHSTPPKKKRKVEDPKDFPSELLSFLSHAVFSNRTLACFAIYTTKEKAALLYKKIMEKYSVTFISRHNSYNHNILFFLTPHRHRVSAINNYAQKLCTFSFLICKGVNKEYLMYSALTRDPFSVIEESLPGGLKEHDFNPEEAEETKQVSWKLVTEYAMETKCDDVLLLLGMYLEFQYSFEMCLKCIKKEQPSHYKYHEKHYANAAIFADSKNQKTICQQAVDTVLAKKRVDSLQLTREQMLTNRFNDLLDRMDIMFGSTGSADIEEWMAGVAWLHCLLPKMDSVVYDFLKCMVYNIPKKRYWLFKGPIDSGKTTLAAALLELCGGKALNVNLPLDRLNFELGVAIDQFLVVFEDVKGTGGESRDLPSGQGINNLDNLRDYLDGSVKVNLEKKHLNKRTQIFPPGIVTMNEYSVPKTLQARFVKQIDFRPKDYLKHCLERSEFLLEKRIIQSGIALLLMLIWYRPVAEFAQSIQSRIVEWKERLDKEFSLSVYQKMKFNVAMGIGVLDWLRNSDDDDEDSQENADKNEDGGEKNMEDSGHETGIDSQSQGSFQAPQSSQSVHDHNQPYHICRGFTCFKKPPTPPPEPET
Sequence of Induced myeloid leukemia cell differentiation protein Mcl-1 (Q07820 whole entry): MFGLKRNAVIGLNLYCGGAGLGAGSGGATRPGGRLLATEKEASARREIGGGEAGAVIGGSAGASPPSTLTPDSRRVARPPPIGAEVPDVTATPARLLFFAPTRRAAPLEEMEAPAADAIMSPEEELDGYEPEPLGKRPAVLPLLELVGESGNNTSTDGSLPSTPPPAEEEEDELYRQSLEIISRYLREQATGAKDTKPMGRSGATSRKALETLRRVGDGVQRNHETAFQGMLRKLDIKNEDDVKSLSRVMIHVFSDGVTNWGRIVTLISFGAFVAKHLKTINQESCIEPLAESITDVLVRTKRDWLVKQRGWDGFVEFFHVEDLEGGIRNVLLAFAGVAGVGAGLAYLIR

On to `Cc1cc(NC(=O)CN2CCN(c3ccc(O)cc3)CC2)no1`, for which the IC50 in [1] was 9.24 µM (active). In addition, the EC50 in test [2] is 31.9 µM (active).
Regarding `Cc1ccc(C(=O)C2CCN(CC(=O)Nc3ccc(N(C)C)cc3)CC2)cc1`, the IC50 in test [1] is 14.5 µM (active).
Same read-out and setting: the result for `NC(=O)N/N=C/c1c(Sc2nnnn2-c2ccccc2)nc2ccccn2c1=O` reads 60.5 µM (active).
For `O=C(O)/C=C/C(=O)Nc1ccc2c(c1)C(=O)c1ccccc1C2=O`, the IC50 in test [3] was > 100 µM (not active).
With `N#CC1=C2SCN(Cc3ccco3)CN2C(=O)CC1c1ccc(Cl)cc1` (stereo not given), the IC50 in [1] was > 100 µM (active).
Take `COc1cc(NS(=O)(=O)c2ccc(NC(=O)CSC3=NCCS3)cc2)nc(OC)n1`: the IC50 in [4] is 2.12 µM (active).
Regarding `O=C1c2c(O)cc(O)cc2O[C@H](c2ccc(O)c(O)c2)[C@H]1O` [(+)-TAXIFOLIN], the IC50 in test [1] was 32 µM (active).
Regarding `Cc1ccc(Nc2cnn(C34CC5CC(CC(CC(=O)O)(C5)C3)C4)c(=O)c2Cl)c(Cl)c1`, in test [4], the IC50 is 24.4 µM (active).
In the case of `COc1ccc(N2CCN(C3=C(Cl)C(=O)N(c4ccc(C(F)(F)F)cc4)C3=O)CC2)cc1`, in test [3], the IC50 is > 12.5 µM (inconclusive).
As for `Cc1ccc(C)c(NC(=O)CSc2ncnc3nc[nH]c23)c1`, the IC50 in [4] is 50.8 µM (active).
On the same count and under the same terms, the result for `Cc1ccc(NC(=O)Cn2nc(C)c3ccccc3c2=O)cc1F` reads 14 µM (active).
Consider `NC(=NOC(=O)CSc1ccccc1)c1ccc([N+](=O)[O-])cc1`, for which the IC50 in test [5] and in test [9] was > 66 µM (inactive) each time. Besides, the figures for the EC50 in [6], in [7] and in test [8] were 11.5 µM (active), > 120 µM (not active) and 9.44 µM (active), respectively.
Consider `Cc1nc(N)sc1-c1csc(Nc2ncccn2)n1`, for which the IC50 in [10] was 3.69 µM (active).
Take `CCc1c(O)nc(SCC(=O)Nc2ccccc2)n(C(C)CC)c1=O` (stereo not given): the IC50 in test [5] is > 66 µM (inactive); in test [9], > 66 µM (inactive); in [4] it was 17.8 µM (active).
As for `O=C(NCc1ccco1)C(=O)c1cn(CC(=O)N2CCCC2)c2ccccc12`, the IC50 in test [4] is 73.3 µM (active).
As for `COc1cccc(C(=O)Nc2ccc3c(c2)n(C)c(=O)n3C)c1`, the IC50 in [1] is > 100 µM (active).
With `CCCc1n[nH]c2c1C(CCc1ccccc1)C(C#N)=C(N)O2` (stereo not given), the EC50 in test [11] was 7.93 µM (active). Also, the AC50 in [12] was 6.33 µM (active). In addition, the IC50 in [4] was 55.7 µM (active).
Take `O=C(O)CN1C(=O)S/C(=C\c2ccc(O)cc2)C1=O`: the IC50 in test [3] is > 100 µM (not active).
As to `O=C(O)c1cccc(Cn2c(Cl)c(/C=N/NC(=O)c3ccccc3)sc2=O)c1`, the IC50 in test [4] is 20.8 µM (active).
On the same count and under the same terms, the result for `CC(C)Sc1nc(-c2ccccc2)cc(=O)[nH]1` reads 28.3 µM (active).
For `COc1ccc(N2CCN(C3=C(Cl)C(=O)N(c4ccnc(Cl)c4)C3=O)CC2)cc1`, the IC50 in test [3] is > 50 µM (inconclusive).
